Measurements published in ChEMBL document CHEMBL1201862, “PubChem BioAssay data set” (2004).
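Cells were grown in 96-well plates and exposed to each compound for 48 hours at five concentrations; endpoints were interpolated linearly between bracketing concentrations, or set to the highest concentration if not reached. GI50 = concentration required for 50% inhibition of growth.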 Calls of active or inactive are those of the source. No stated cut-off is given here; in the data, active = GI50 up to about 1.1 µM and inactive = higher.

How the values were obtained:
Experiment in all cases: NCI tumour cell line growth inhibition, 48 h
786-0 = tested on: 786-0
A498 = tested on: A498
A549 = tested on: A549
ACHN = tested on: ACHN
BT-549 = tested on: BT-549
CAKI-1 = tested on: CAKI-1
CCRF-CEM = tested on: CCRF-CEM
COLO 205 = tested on: COLO 205
DU-145 = tested on: DU-145
EKVX = tested on: EKVX
HCC 2998 = tested on: HCC 2998
HCT-116 = tested on: HCT-116
HCT-15 = tested on: HCT-15
HL-60 = tested on: HL-60
HOP-62 = tested on: HOP-62
HOP-92 = tested on: HOP-92
HT-29 = tested on: HT-29
Hs-578T = tested on: Hs-578T
IGROV-1 = tested on: IGROV-1
K562 = tested on: K562
KM12 = tested on: KM12
LOX IMVI = tested on: LOX IMVI
M14 = tested on: M14
MCF7 = tested on: MCF7
MDA-MB-231 = tested on: MDA-MB-231
MDA-MB-435 = tested on: MDA-MB-435
MDA-N = tested on: MDA-N
MOLT-4 = tested on: MOLT-4
Malme-3M = tested on: Malme-3M
NCI-H226 = tested on: NCI-H226
NCI-H23 = tested on: NCI-H23
NCI-H522 = tested on: NCI-H522
NCI/ADR-RES = tested on: NCI/ADR-RES
OVCAR-3 = tested on: OVCAR-3
OVCAR-4 = tested on: OVCAR-4
OVCAR-5 = tested on: OVCAR-5
OVCAR-8 = tested on: OVCAR-8
PC-3 = tested on: PC-3
RPMI-8226 = tested on: RPMI-8226
RXF 393 = tested on: RXF 393
SF-268 = tested on: SF-268
SF-295 = tested on: SF-295
SK-MEL-28 = tested on: SK-MEL-28
SK-MEL-2 = tested on: SK-MEL-2
SK-MEL-5 = tested on: SK-MEL-5
SK-OV-3 = tested on: SK-OV-3
SN12C = tested on: SN12C
SNB-19 = tested on: SNB-19
SNB-75 = tested on: SNB-75
SR = tested on: SR
SW-620 = tested on: SW-620
T47D = tested on: T47D
TK-10 = tested on: TK-10
U-251 = tested on: U-251
UACC-257 = tested on: UACC-257
UACC-62 = tested on: UACC-62
UO-31 = tested on: UO-31

CCCCC[C@H](O)[C@H](C)C=C1SCCCS1
GI50 (786-0): > 100 µM (inactive) | GI50 (A498): > 100 µM (inactive) | GI50 (A549): > 100 µM (inactive) | GI50 (ACHN): > 100 µM (inactive) | GI50 (BT-549): > 100 µM (inactive) | GI50 (CAKI-1): > 100 µM (inactive) | GI50 (CCRF-CEM): > 100 µM (inactive) | GI50 (COLO 205): > 100 µM (inactive) | GI50 (DU-145): > 100 µM (inactive) | GI50 (EKVX): > 100 µM (inactive) | GI50 (HCC 2998): > 100 µM (inactive) | GI50 (HCT-116): > 100 µM (inactive) | GI50 (HCT-15): > 100 µM | GI50 (HL-60): > 100 µM (inactive) | GI50 (HOP-62): > 100 µM (inactive) | GI50 (HOP-92): > 100 µM (inactive) | GI50 (HT-29): > 100 µM (inactive) | GI50 (Hs-578T): > 100 µM (inactive) | GI50 (IGROV-1): > 100 µM (inactive) | GI50 (K562): > 100 µM (inactive) | GI50 (KM12): > 100 µM (inactive) | GI50 (LOX IMVI): > 100 µM (inactive) | GI50 (M14): > 100 µM (inactive) | GI50 (MCF7): > 100 µM (inactive) | GI50 (MDA-MB-231): > 100 µM (inactive) | GI50 (MDA-MB-435): > 100 µM (inactive) | GI50 (MDA-N): > 100 µM (inactive) | GI50 (MOLT-4): > 100 µM (inactive) | GI50 (Malme-3M): > 100 µM (inactive) | GI50 (NCI-H226): > 100 µM (inactive) | GI50 (NCI-H23): > 100 µM (inactive) | GI50 (NCI-H522): > 100 µM (inactive) | GI50 (NCI/ADR-RES): > 100 µM (inactive) | GI50 (OVCAR-3): > 100 µM (inactive) | GI50 (OVCAR-4): > 100 µM (inactive) | GI50 (OVCAR-5): > 100 µM (inactive) | GI50 (OVCAR-8): > 100 µM (inactive) | GI50 (PC-3): > 100 µM (inactive) | GI50 (RPMI-8226): > 100 µM (inactive) | GI50 (RXF 393): > 100 µM (inactive) | GI50 (SF-268): > 100 µM (inactive) | GI50 (SF-295): > 100 µM (inactive) | GI50 (SK-MEL-28): > 100 µM (inactive) | GI50 (SK-MEL-2): > 100 µM (inactive) | GI50 (SK-MEL-5): > 100 µM (inactive) | GI50 (SK-OV-3): > 100 µM (inactive) | GI50 (SN12C): > 100 µM (inactive) | GI50 (SNB-19): > 100 µM (inactive) | GI50 (SNB-75): > 100 µM (inactive) | GI50 (SR): > 100 µM (inactive) | GI50 (SW-620): > 100 µM (inactive) | GI50 (T47D): 43.2 µM (inactive) | GI50 (TK-10): > 100 µM (inactive) | GI50 (U-251): > 100 µM (inactive) | GI50 (UACC-257): > 100 µM (inactive) | GI50 (UACC-62): > 100 µM (inactive) | GI50 (UO-31): > 100 µM (inactive)
